Results reported in patent publication US12215085B2 (priority 2019, dated 2025).

Legend:
[1] = system: rats with common carotid artery occlusion-induced vascular dementia; assay: Step-down test, common carotid artery occlusion-induced vascular dementia rats; assay type: in vivo, rat; conditions: step-down method, x ± s, succinate
From the text: (§1) A rat blood vessel dementia model was made according to the references [ZHAO Xian-lin, FANG Xiu-bin, LI Dong-pei. Establishment of Vascular Dementia Model in Rats, J Chin Med Univ, 2002, 31 (3): 166-168; WANG Yong-yan, Zhang Bo-li, Editor-in-chief. Modern Chinese Medicine Clinic and Research on Vascular Dementia, People's Medical Publishing House, October 2003, First Version 214]: Chloral hydrate 0.4 g/kg was intraperitoneally injected for anesthetizing rats, and bilateral common carotid arteries were isolated and ligated. The animals were fed for 16 weeks, divided into groups on the last 7 days, and administered. The normal control group and the model group were administrated through the intragastric route with distilled water by 0.5 ml/100 g, the positive control group was administrated through the intragastric route with donepezil hydrochloride by 1.75 mg/kg (equivalent to 3.85 times the clinical daily dosage of 5 mg/70 kg), the low, medium and high-dose groups of Crystal Form A of octahydroaminoacridine succinate were administrated through the intragastric route with Crystal Form A of octahydroaminoacridine succinate by 0.7, 1.4 and 2.8 mg/kg (equivalent to 0.96, 1.92 and 3.85 times the clinical daily dosage of 8 mg/70 kg). The water maze test and the step-down test were carried out after continuous administration for 7 days, and the administration was continued during the test period. The water maze test was continuously performed for 7 days, in the first 6 days, in four different water entry points of quadrants 1, 2, 3 and 4, the time, the swimming path length, the orientation angle and the average speed of the rat reaching the platform were measured, meanwhile, the strategy for reaching the platform adopted by rats was observed, on the 7th day, the platform was removed, the number of rats crossing the platform in 2 minutes, the residence time in the platform area, the residence time in the platform quadrants, the percentage of the swimming path length in the platform area quadrants to the total swimming path length, the average speed and the orientation angle were measured. After the water maze test was finished, the step-down test was performed, and the number of electric shocks (or called as the error number) received by each rat within 5 minutes was recorded as the learning performance. The test was performed again after 24 hours, namely, the memory retention test, and the latent period for stepping-down the platform for the first time and the error number in five minutes were recorded. After the step-down test was finished, the brain was taken quickly for pathological examination, and the pathological changes of the hippocampus and the cortex were observed.

[2] = system: rats with common carotid artery occlusion-induced vascular dementia; assay: Water maze test, common carotid artery occlusion-induced vascular dementia rats; assay type: in vivo, rat; conditions: succinate; for orientation angle for reaching the platform / speed for reaching the platform / swimming path length for reaching the platform / time for reaching the platform: x ± s
From the text: as §1

[3] = 0.7 mg/kg intragastric, 0.7 mg/kg
[4] = 1.4 mg/kg intragastric, 1.4 mg/kg
[5] = 2.8 mg/kg intragastric, 2.8 mg/kg
[6] = Day 1, 0.7 mg/kg intragastric, 0.7 mg/kg
[7] = Day 1, 1.4 mg/kg intragastric, 1.4 mg/kg
[8] = Day 1, 2.8 mg/kg intragastric, 2.8 mg/kg
[9] = Day 2, 0.7 mg/kg intragastric, 0.7 mg/kg
[10] = Day 2, 1.4 mg/kg intragastric, 1.4 mg/kg
[11] = Day 2, 2.8 mg/kg intragastric, 2.8 mg/kg
[12] = Day 3, 0.7 mg/kg intragastric, 0.7 mg/kg
[13] = Day 3, 1.4 mg/kg intragastric, 1.4 mg/kg
[14] = Day 3, 2.8 mg/kg intragastric, 2.8 mg/kg
[15] = Day 4, 0.7 mg/kg intragastric, 0.7 mg/kg

## Nc1c2c(nc3c1CCCC3)CCCC2.O=C(O)CCC(=O)O [Crystal Form K, 9-amino-1,2,3,4,5,6,7,8-octahydroacridine succinate]
[1]; [3]
  Day 1, Error number: 9.21 ± 4.52
  Day 2, Error latency: 146.89 ± 60.45 s
  Day 2, Error number: 2.49 ± 2.35
[1]; [4]
  Day 1, Error number: 8.34 ± 3.78
  Day 2, Error latency: 178.46 ± 52.77 s
  Day 2, Error number: 3.34 ± 1.49
[1]; [5]
  Day 1, Error number: 8.46 ± 4.68
  Day 2, Error latency: 192.55 ± 87.48 s
  Day 2, Error number: 3.41 ± 1.88
[2]; [6]
  adopted strategy for reaching the platform (the peripheral type and the random type %): 93.00%
  orientation angle for reaching the platform: 68.46 ± 25.21 °
  speed for reaching the platform: 21.26 ± 4.78 cm/s
  swimming path length for reaching the platform: 1602.41 ± 583.25 cm
  time for reaching the platform: 75.36 ± 14.23 s
[2]; [7]
  adopted strategy for reaching the platform (the peripheral type and the random type %): 86.50%
  orientation angle for reaching the platform: 69.28 ± 21.03 °
  speed for reaching the platform: 20.45 ± 9.24 cm/s
  swimming path length for reaching the platform: 1502.83 ± 613.11 cm
  time for reaching the platform: 73.45 ± 14.49 s
[2]; [8]
  adopted strategy for reaching the platform (the peripheral type and the random type %): 79.00%
  orientation angle for reaching the platform: 70.38 ± 18.48 °
  speed for reaching the platform: 19.88 ± 6.76 cm/s
  swimming path length for reaching the platform: 1211.27 ± 259.82 cm
  time for reaching the platform: 70.25 ± 9.82 s
[2]; [9]
  adopted strategy for reaching the platform (the peripheral type and the random type %): 83.50%
  orientation angle for reaching the platform: 60.47 ± 24.23 °
  speed for reaching the platform: 21.66 ± 8.76 cm/s
  swimming path length for reaching the platform: 1242.31 ± 438.47 cm
  time for reaching the platform: 57.33 ± 17.88 s
[2]; [10]
  adopted strategy for reaching the platform (the peripheral type and the random type %): 80.00%
  orientation angle for reaching the platform: 58.29 ± 17.83 °
  speed for reaching the platform: 24.28 ± 9.65 cm/s
  swimming path length for reaching the platform: 1219.38 ± 892.43 cm
  time for reaching the platform: 50.21 ± 20.11 s
[2]; [11]
  adopted strategy for reaching the platform (the peripheral type and the random type %): 76.50%
  orientation angle for reaching the platform: 57.88 ± 17.43 °
  speed for reaching the platform: 28.24 ± 4.72 cm/s
  swimming path length for reaching the platform: 1377.38 ± 328.92 cm
  time for reaching the platform: 47.36 ± 14.52 s
[2]; [12]
  adopted strategy for reaching the platform (the peripheral type and the random type %): 70.50%
  orientation angle for reaching the platform: 59.03 ± 16.89 °
  speed for reaching the platform: 20.12 ± 8.22 cm/s
  swimming path length for reaching the platform: 749.48 ± 427.45 cm
  time for reaching the platform: 45.78 ± 10.33 s
[2]; [13]
  adopted strategy for reaching the platform (the peripheral type and the random type %): 71.00%
  orientation angle for reaching the platform: 58.22 ± 10.34 °
  speed for reaching the platform: 21.34 ± 6.99 cm/s
  swimming path length for reaching the platform: 763.45 ± 414.55 cm
  time for reaching the platform: 44.29 ± 20.13 s
[2]; [14]
  adopted strategy for reaching the platform (the peripheral type and the random type %): 65.50%
  orientation angle for reaching the platform: 55.11 ± 16.99 °
  speed for reaching the platform: 20.10 ± 6.82 cm/s
  swimming path length for reaching the platform: 644.62 ± 582.37 cm
  time for reaching the platform: 40.67 ± 13.41 s
[2]; [15]
  adopted strategy for reaching the platform (the peripheral type and the random type %): 75.50%
  orientation angle for reaching the platform: 55.36 ± 19.61 °
  speed for reaching the platform: 21.70 ± 10.21 cm/s
  swimming path length for reaching the platform: 788.25 ± 300.86 cm
